From patent US20250199015A1, “CYCLIN-DEPENDENT KINASE 2 INHIBITORS FOR MEDICAL TREATMENT” (INCYCLIX BIO, LLC, priority 2022, published 2025)
“Also recorded” adds a separate entry of the source. Like-named read-outs stand apart in the source and are kept apart here.

Columns and labels:
[1] = Respiratory safety pharmacology study; assay type: in vivo, rats; conditions: any dose level
Source text: Safety pharmacology studies described more fully below included a functional observational battery (FOB) testing in a 28-day repeat-dose toxicity study in rats, electrocardiogram (ECG) evaluations in a 28-day repeat-dose toxicity study in dogs, and a single-dose respiratory safety pharmacology study in rats.

[2] = system: SA-beta galactosidase in LYR and LYFR cells; experiment: Senescence-associated beta-galactosidase staining; assay type: cell-based; conditions: with abemaciclib and/or fulvestrant, 5 days
Procedure: Briefly, cells were plated at low density and treated with the agents described for 5 days. A senescence detection kit was used to stain for SA-beta galactosidase (FIG. 148A-148D).

[3] = target: T1, human OCT1 (Homo sapiens, UniProt O15245); experiment: SLC transporter inhibition in HEK293 cells; assay type: in vitro ADME
T1 construct: expressed in transfected cells; host or cells: HEK293
T1 sequence (O15245 1-554): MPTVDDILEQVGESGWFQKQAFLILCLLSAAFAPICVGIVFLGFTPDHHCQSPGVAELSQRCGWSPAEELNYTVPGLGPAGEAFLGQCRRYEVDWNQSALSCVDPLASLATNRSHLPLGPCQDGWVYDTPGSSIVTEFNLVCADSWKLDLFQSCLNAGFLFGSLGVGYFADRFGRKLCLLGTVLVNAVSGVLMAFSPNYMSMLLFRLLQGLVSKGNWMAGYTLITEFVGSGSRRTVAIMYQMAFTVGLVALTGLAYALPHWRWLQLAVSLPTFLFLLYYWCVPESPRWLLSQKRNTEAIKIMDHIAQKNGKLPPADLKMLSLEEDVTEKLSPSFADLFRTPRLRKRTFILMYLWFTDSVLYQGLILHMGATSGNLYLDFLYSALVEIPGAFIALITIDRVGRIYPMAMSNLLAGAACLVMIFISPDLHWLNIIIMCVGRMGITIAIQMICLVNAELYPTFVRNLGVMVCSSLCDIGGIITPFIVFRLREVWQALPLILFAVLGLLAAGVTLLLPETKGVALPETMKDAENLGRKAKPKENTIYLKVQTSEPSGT

[4] = system: MMTV-rtTA/tetO-HER2 tumors; experiment: Abemaciclib-resistant HER2-overexpressing breast cancer mouse model; assay type: in vivo, mice; conditions: Compound I 50 mg/kg BID + abemaciclib 50 mg/kg BID, out to day 38
Procedure: Breast cancer model mice overexpressing HER2 (MMTV-rtTA/tetO-HER2) were treated with abemaciclib until resistance to treatment was observed. […] The test agents were delivered at 5 mL/kg by oral gavage.

[5] = target: T2, human OCT2 (Homo sapiens, UniProt O15244); experiment: SLC transporter inhibition in HEK293 cells; assay type: in vitro ADME
T2 construct: expressed in transfected cells; host or cells: HEK293
T2 sequence (O15244 1-555): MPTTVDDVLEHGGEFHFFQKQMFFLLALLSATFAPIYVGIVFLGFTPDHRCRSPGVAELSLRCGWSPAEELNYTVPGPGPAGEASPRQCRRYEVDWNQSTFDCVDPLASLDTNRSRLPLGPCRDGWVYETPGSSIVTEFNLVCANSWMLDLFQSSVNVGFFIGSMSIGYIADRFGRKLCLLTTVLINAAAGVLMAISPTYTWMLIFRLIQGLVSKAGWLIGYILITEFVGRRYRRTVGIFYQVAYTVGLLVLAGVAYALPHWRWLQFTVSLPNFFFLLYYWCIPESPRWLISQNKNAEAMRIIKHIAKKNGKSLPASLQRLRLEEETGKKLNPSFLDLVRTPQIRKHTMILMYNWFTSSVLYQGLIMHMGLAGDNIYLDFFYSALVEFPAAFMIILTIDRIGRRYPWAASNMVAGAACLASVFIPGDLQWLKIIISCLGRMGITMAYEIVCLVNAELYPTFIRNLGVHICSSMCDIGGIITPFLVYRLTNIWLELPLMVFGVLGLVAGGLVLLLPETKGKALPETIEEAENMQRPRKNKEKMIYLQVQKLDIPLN

[6] = system: CYP3A4 transcription; experiment: CYP induction (transcription); assay type: in vitro ADME; conditions: up to 3 μM, 24 hours
[7] = target: T3, human OATP1B1 (Homo sapiens, UniProt Q9Y6L6); experiment: SLC transporter inhibition in HEK293 cells; assay type: in vitro ADME
T3 construct: expressed in transfected cells; host or cells: HEK293
T3 sequence (Q9Y6L6 whole entry): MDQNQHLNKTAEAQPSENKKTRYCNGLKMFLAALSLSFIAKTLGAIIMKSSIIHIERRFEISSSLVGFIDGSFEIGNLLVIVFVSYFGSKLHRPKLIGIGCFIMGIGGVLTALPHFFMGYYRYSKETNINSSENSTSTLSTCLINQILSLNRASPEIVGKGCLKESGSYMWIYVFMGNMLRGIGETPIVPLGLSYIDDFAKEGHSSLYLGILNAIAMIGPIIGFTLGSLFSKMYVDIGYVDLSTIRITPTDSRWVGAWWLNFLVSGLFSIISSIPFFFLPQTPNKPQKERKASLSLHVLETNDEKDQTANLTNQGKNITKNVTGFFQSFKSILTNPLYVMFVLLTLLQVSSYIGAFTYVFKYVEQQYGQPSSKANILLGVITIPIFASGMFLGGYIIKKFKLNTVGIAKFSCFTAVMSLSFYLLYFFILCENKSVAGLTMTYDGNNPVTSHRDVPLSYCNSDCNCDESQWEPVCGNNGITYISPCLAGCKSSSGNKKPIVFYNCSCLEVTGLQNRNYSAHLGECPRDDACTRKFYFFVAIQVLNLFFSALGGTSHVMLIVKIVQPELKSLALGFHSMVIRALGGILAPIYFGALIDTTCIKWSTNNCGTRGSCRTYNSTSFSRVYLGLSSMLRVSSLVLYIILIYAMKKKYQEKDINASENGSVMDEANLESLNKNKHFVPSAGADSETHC

[8] = system: Hs68 normal foreskin fibroblast cells; experiment: Cell cycle by EdU flow cytometry, normal fibroblasts; assay type: cell-based, human; conditions: 300 nM, 24 hours, alone or in combination with cisplatin
Procedure: The Hs68 normal foreskin fibroblast cell line was grown in DMEM-high glucose/1× Glutamax/10% fetal bovine serum and was plated at 30,000 cells/well in Corning 6 well tissue culture treated plates. Cells were incubated at 37° C. for 24 hours prior to addition of the first treatment. […] Cells were treated to 24 hours post-initial treatment, with 10 μM EdU added at hour 23. Cells were collected and fixed in 1% paraformaldehyde. Cells were incubated with pacific blue azide dye as described by Thermo Scientific. Cells were then incubated with antibody against γ-H2AX at a ratio of 1:50 before incubation with FarRed dye and RNase. Cells were analyzed on a BD Celesta and data compiled using FloJo and GraphPad. Cell cycle profiles were evaluated following treatment via Flow Cytometry using FlowJo (v10.0) software.

[9] = system: H526 cells; experiment: CellTiter Glo cell proliferation assay (single agent and chemotherapy combination); assay type: cell-based, human
Procedure: Plates returned to incubator for six additional days. On day six post dosing, plates were removed and treated with CellTiter Glo reagent following manufacturer's specifications. Plates incubated 45 minutes at room temperature and run on a Biotek luminometer with 1 sec/well detection. Results were converted to Microsoft Excel and transferred to GraphPad Prism for analysis.
Cells were plated at 250 cells per well in white wall/clear bottom plates and incubated overnight. […] Plates returned to the incubator for six additional days. On day six post dosing, plates were removed and treated with CellTiter Glo reagent following manufacturer's specifications. Plates incubated 45 minutes at room temperature and run on a Biotek luminometer with 1 sec/well detection. Results were converted to Microsoft Excel and transferred to GraphPad Prism for analysis.
(§1) Dose curves ranged from 300 pM to 10 μM in triplicate and treatments lasted for 6 days. Plates were removed from incubator at each specified timepoint and treated with CellTiter-Glo (Promega, Inc) following manufacturer specifications. Plates were then read on CLARIOstar luminometer with 1 sec/well integration.
as §1, with “integration. Results were converted to Microsoft Excel and transferred to GraphPad Prism for Analysis.” for “integration.”

Q: What does the source list for `NS(=O)(=O)c1ccc(Nc2ncc3cc4n(c3n2)C2(CCCCC2)C(=O)NN4)cc1` [Compound I]?
A: respiratory function [1]: did not affect; also recorded: not affected; beta galactosidase staining [2]: significantly increased beta galactosidase staining; Maximum Percent inhibition ([3]; OCT1, HEK293 cells): 89%; IC50 ([3]; OCT1, HEK293 cells, read-out: IC50): 5.5 µM; IC50 ([3]; read-out: OCT1 IC50): 5.5 µM; tumor growth [4]: substantially reduced tumor growth relative to either agent administered alone; Maximum Percent inhibition ([5]; OCT2, HEK293 cells): 49%; IC50 ([5]; OCT2, HEK293 cells, estimated, read-out: IC50): 17.1 µM; IC50 ([5]; read-out: OCT2 IC50): 17.1 µM; induction of CYP3A4 transcription [6]: no observed induction; IC50 [7]: 3.81 µM; Maximum Percent inhibition ([7]; OATP1B1, HEK293 cells): 93%; cell cycle changes [8]: Few cell cycle changes were observed; cellular proliferation IC50, combined with camptothecin, versus single agents ([9]; 100 nM Compound I with camptothecin dose curve, 6 days): comparable; IC50 ([9]; Homo sapiens, NCI-H526, 144 h, six days): 0.062 µM; inhibition compared with palbociclib ([9]; six days): low nanomolar concentrations
